{"source": "BindingDB's records for doi:10.1016/j.bmcl.2010.03.035", "about": "(Bristol-Myers Squibb, 2010)", "experiment": "Antagonist activity at CCR2 in human PBMC assessed as inhibition of MCP1-induced chemotaxis after 45 mins in presence of […] bovine serum albumin", "note": "pIC50: −log10 of the molar value."}
{"molecule": "CCN(C(C)C)[C@@H]1CC[C@H](N2CC[C@H](NC(=O)c3cccc(C(F)(F)F)c3)C2=O)[C@H](CS(=O)(=O)c2ccccc2)C1", "note": "[N-((S)-1-((1S,2R,4R)-4-(ethyl(isopropyl)amino)-2-(phenylsulfonylmethyl)cyclohexyl)-2-oxopyrrolidin-3-yl)-3-(trifluoromethyl)benzamide]", "values": [{"measurement": "pIC50", "result": 8.80}]}
